This is an account of results in patent US20080280868A1, “Pyridine Derivatives and Their Use as Cb2 Receptor Modulators” (priority 2004, published 2008).

For the experiment, the target named is T1, human cannabinoid CB2 receptor (Homo sapiens, UniProt P34972).
T1 construct: expressed in transfected cells; host or cells: Saccharomyces cerevisiae strain MMY23 (cassette integrated at the ura3 locus, GPD promoter)
The experiment is described as follows: Cannabinoid CB2 receptor agonist activity in yeast cells (FDGlu fluorescence). To be noted: for Emax: read-out: efficacy value (Emax) at the cloned human cannabinoid CB2 receptor. It counts as cell-based. On the procedure: The cannabinoid CB2 receptor agonist activity of the compounds of formula (I) was determined in accordance with the following experimental method.
Yeast (Saccharomyces cerevisiae) cells expressing the human cannabinoid CB2 receptor were generated by integration of an expression cassette into the ura3 chromosomal locus of yeast strain MMY23. This cassette consisted of DNA sequence encoding the human CB2 receptor flanked by the yeast GPD promoter to the 5′ end of CB2 and a yeast transcriptional terminator sequence to the 3′ end of CB2. MMY23 expresses a yeast/mammalian chimeric G-protein alpha subunit in which the C-terminal 5 amino acids of Gpal are replaced with the C-terminal 5 amino acids of human Gαi3 (as described in Brown et al. (2000), Yeast 16:11-22).
Agonists were prepared as 10 mM stocks in DMSO. […] Agonist solutions in DMSO (1% final assay volume) were transferred into black, clear bottom, microtitre plates from NUNC (96- or 384-well). Cells were suspended at a density of 0.2 OD600/ml in SC media lacking histidine, uracil, tryptophan, adenine and leucine and supplemented with 10 mM 3-aminotriazole, 0.1M sodium phosphate pH 7.0, and […] fluorescein di-β-D-glucopyranoside (FDGlu). […] After incubation at 30° C. for 24 hours, fluorescence resulting from degradation of FDGlu to fluorescein due to exoglucanase, an endogenous yeast enzyme produced during agonist-stimulated cell growth, was determined using a Spectrofluor microtitre plate reader (Tecan; excitation wavelength: 485 nm; emission wavelength: 535 nm). Fluorescence was plotted against compound concentration and iteratively curve fitted using a four parameter fit to generate a concentration effect value. Efficacy (Emax) was calculated from the equation
Equieffective molar ratio (EMR) values were calculated from the equation

Where [1] appears, read: Emax relative to HU210, yeast expressing human CB2.
The mark [2] stands for this setting: yeast (Saccharomyces cerevisiae) expressing human CB2, agonist, 30° C. for 24 hours, read-out: EC50 at the cloned human cannabinoid CB2 receptor.

The structures appear in SMILES notation. Counter-ions that a name gives are not always drawn. Like-named read-outs stand apart in the source and are kept apart here. Where only a bound is given, the exact number is not on record here.

T1 sequence (P34972 whole entry): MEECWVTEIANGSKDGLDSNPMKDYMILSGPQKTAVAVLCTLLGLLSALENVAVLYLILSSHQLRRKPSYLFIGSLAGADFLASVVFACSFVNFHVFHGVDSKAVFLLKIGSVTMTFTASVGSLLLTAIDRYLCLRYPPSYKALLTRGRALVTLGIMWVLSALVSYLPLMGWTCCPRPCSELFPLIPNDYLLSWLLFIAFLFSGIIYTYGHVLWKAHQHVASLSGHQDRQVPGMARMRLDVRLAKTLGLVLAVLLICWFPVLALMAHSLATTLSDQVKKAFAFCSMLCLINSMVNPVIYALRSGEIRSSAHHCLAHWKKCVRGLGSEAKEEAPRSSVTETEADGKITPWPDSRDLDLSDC

As usually defined, the Emax is the maximal effect, on the per cent scale that the assay sets. Broadly, the EC50 is the concentration needed to bring the measured effect to its halfway point. In the case of `Clc1cccc(Nc2cc(C3CC3)c(CNC3CCC3)cn2)c1` [Example 1, (3-Chlorophenyl)-5-(cyclobutylaminomethyW cyclopropyl-pyridin-2-yl)-amine acetate], under setting [1], the Emax was greater than 50%. In addition, under setting [2], the EC50 was less than 300 nM.
In the case of `Clc1cccc(Nc2cc(C3CC3)c(CNC3CC3)cn2)c1` [Example 2, (3-Chlorophenyl)-(4-cyclopropyl-5-cyclopropylaminomethyl-pyridin-2-yl)-amineacetate], the Emax under setting [1] was greater than 50%. Also, the EC50 under setting [2] was less than 300 nM.
On to `Clc1cccc(Nc2cc(C3CC3)c(CNCC3CC3)cn2)c1` [Example 3, (3-Chlorophenyl)-(4-cyclopropyl-5-[(cyclopropylmethyl-amino)-methyl]-pyridin-2-yl}-amine acetate], for which the EC50 is less than 300 nM and the maximal effect (Emax) was greater than 50%.
Take `Clc1cccc(Nc2cc(C3CC3)c(CN3CCOCC3)cn2)c1` [Example 4, (3-Chlorophenyl)-(4-cyclopropyl-5-morpholin-4-ylmethyl-pyridin-2-yl)-aminedihydrochloride]: the concentration giving a half-maximal response (EC50) is less than 300 nM and the maximal response (Emax) was greater than 50%.
The corresponding values for `CC(C)CNCc1cnc(Nc2cccc(Cl)c2)cc1C1CC1` [Example 5, (3-Chlorophenyl)-[4-cyclopropyl-5-(isobutylamino-methyl)-pyridin-2-yl]-amineacetate] are less than 300 nM and greater than 50%.
On to `Clc1cccc(Nc2cc(C3CC3)c(CNC3CCOCC3)cn2)c1` [Example 11, (3-Chlorophenyl)-{4-cyclopropyl-5-[(tetrahydro-pyran-4-ylamino)-methyl]-pyridin-2-yl}-amineacetate], for which the maximum response (Emax) is greater than 50%. In addition, the EC50 under setting [2] lay within 300 to 1000 nM.
Consider `Cc1cccc(Nc2cc(C(C)C)c(CNCC3CCC3)cn2)c1` [Example 12, {5-[(Cyclobutylmethyl-amino)methyl]-4-isopropyl-pyridin-2-yl}-m-tolyl-amine], for which the concentration for a half-maximal effect (EC50) lay within 300 to 1000 nM and the maximal response (Emax) is greater than 50%.
Consider `Clc1cccc(Nc2cc(C3CC3)c(CNCC3CCC3)cn2)c1` [Example 13, (3-Chloro-phenyl)-{5-[(cyclobutylmethyl-amino)-methyl]-4-cyclopropyl-pyridin-2-yl}-amine], for which the half-maximal effective concentration (EC50) was less than 300 nM and the maximal effect (Emax) was greater than 50%.
The corresponding values for `CC(C)c1cc(Nc2ccc(Cl)cc2Cl)ncc1CNCC1CCC1` [Example 16, {5-[(Cyclobutylmethyl-amino)-methyl]-4-isopropyl-pyridin-2-yl}-(2,4-dichloro-phenyl)-amine,compound with formic acid (1:1)] are less than 300 nM and greater than 50%.
The like results for `CC(C)c1cc(Nc2ccc(Cl)c(Cl)c2)ncc1CNCC1CCC1` [Example 17, {5-[(Cyclobutylmethyl-amino)-methyl]-4-isopropyl-pyridin-2-yl}-(3,4-dichloro-phenyl)-amine,compound with formic acid (1:1.2)] were, in that order, less than 300 nM and greater than 50%.
As to `CC(C)c1cc(Nc2ccc(F)c(Cl)c2)ncc1CNCC1CCC1` [Example 18, (3-Chloro-4-fluoro-phenyl)-{5-[(cyclobutyhnethyl-amino)-methyl]-4-isopropyl-pyridin-2-yl}-amine,compound with formic acid (1:1.3)], the maximum response (Emax) under setting [1] was greater than 50%. Also, under setting [2], the EC50 is less than 300 nM.
Take `CC(C)c1cc(Nc2cc(Cl)ccc2Cl)ncc1CNCC1CCC1` [Example 20, {5-[(Cyclobutylmethyl-amino)-methyl]-4-isopropyl-pyridin-2-yl}-(2,5-dichloro-phenyl)-amine,compound with formic acid (1:1)]: the EC50 was less than 300 nM and the Emax is greater than 50%.
For the compound `CC(C)c1cc(Nc2cc(F)cc(F)c2)ncc1CNCC1CCC1` [Example 21, {5-[(Cyclobutylmethyl-amino)-methyl]-4-isopropyl-pyridin-2-yl}-(3,5-difluoro-phenyl)-amine,compound with formic acid (1:1.3)], the Emax under setting [1] is greater than 50%. Besides, the concentration for a half-maximal effect (EC50) under setting [2] is less than 300 nM.
As to `CC(C)c1cc(Nc2cccc(Cl)c2)ncc1CNCC1CC1` [Example 22, (3-Chloro-phenyl)-{5-[(cyclopropylmethyl-amino)-methyl]-4-isopropyl-pyridin-2-yl}-amine, compound with formic acid(1:1.25)], the 50% effective concentration (EC50) was less than 300 nM and the Emax is greater than 50%.
As for `CC(C)CNCc1cnc(Nc2ccc(Cl)cc2Cl)cc1C(C)C` [Example 23, (2,4-Dichloro-phenyl)-[5-(isobutylamino-methyl)-4-isopropyl-pyridin-2-yl]-amine, compound withformic acid (1:1)], the EC50 was less than 300 nM and the maximum response (Emax) was greater than 50%.
The corresponding values for `CC(C)c1cc(Nc2ccc(F)cc2Cl)ncc1CNCC1CCC1` [Example 24, (2-Chloro-4-fluoro-phenyl)-{5-[(cyclobutylmethyl-amino)-methyl]-4-isopropyl-pyridin-2-yl}-amine,compound with formic acid (1:1.75)] are 300 to 1000 nM and greater than 50%.
Take `CC(C)c1cc(Nc2ccc(Cl)cc2F)ncc1CNCC1CCC1` [Example 25, (4-Chloro-2-fluoro-phenyl)-{5-[(cyclobutylmethyl-amino)-methyl]-4-isopropyl-pyridin-2-yl}-amine,compound with formic acid (1:1.67)]: the Emax under setting [1] was greater than 50%. Also, under setting [2], the 50% effective concentration (EC50) was in the range of 300 to 1000 nM.
`CC(C)c1cc(Nc2ccc(OC(F)(F)F)cc2Br)ncc1CNCC1CCC1` [Example 26, (2-Bromo-4-trifluoromethoxy-phenyl)-{5-[(cyclobutylmethyl-amino)-methyl]-4-isopropyl-pyridin-2-yl}-amine, compound with formicacid (1:1)]: the Emax was greater than 50%. Also, the EC50 under setting [2] lay within 300 to 1000 nM.
As to `Cc1cc(Cl)ccc1Nc1cc(C(C)C)c(CNCC2CCC2)cn1` [Example 27, (4-Chloro-2-methyl-phenyl)-{5-[(cyclobutylmethyl-amino)-methyl)-4-isopropyl-pyridin-2-yl}-amine,compound with formic acid (1:1.33)], the EC50 fell in the range of 300 to 1000 nM and the Emax was greater than 50%.
With `Cc1c(Cl)cccc1Nc1cc(C2CC2)c(CNCC2CCC2)cn1` [Example 29, (3-Chloro-2-methyl-phenyl)-{5-[(cyclobutylmethyl-amino)-methyl]-4-cyclopropyl-pyridin-2-yl}-amine,compound with formic acid (1:1.57)], the Emax under setting [1] is greater than 50%. Besides, the concentration for a half-maximal effect (EC50) under setting [2] fell in the range of 300 to 1000 nM.
As for `CC(C)c1cc(Nc2cccc(C(F)(F)F)c2)ncc1CNCC1CC1` [Example 30, {5-[(Cyclopropylmethyl-amino)-methyl]-4-isopropyl-pyridin-2-yl}-(3-trifluoromethyl-phenyl)-amine,compound with formic acid (1:1)], the EC50 was in the range of 300 to 1000 nM and the maximal response (Emax) is greater than 50%.
As to `CC(C)c1cc(Nc2cc(F)cc(F)c2)ncc1CNCC1CC1` [Example 31, {5-[(Cyclopropylmethyl-amino)-methyl]-4-isopropyl-pyridin-2-yl}-(3,5-difluoro-phenyl)-amine,compound with formic acid (1:1)], the Emax was greater than 50%. Moreover, under setting [2], the EC50 fell in the range of 300 to 1000 nM.
Turning to `Cc1ccc(Nc2cc(C(C)C)c(CNCC3CC3)cn2)cc1Cl` [Example 33, (3-Chloro-4-methyl-phenyl)-{5-[(cyclopropylmethyl-amino)-methyl]-4-isopropyl-pyridin-2-yl}-amine, compound with formic acid(1:1)], the concentration giving a half-maximal response (EC50) lay within 300 to 1000 nM and the maximal effect (Emax) was greater than 50%.
In the case of `CC(C)c1cc(Nc2ccc(F)c(Cl)c2)ncc1CNCC1CC1` [Example 34, (3-Chloro-4-fluoro-phenyl)-{5-[(cyclopropylmethyl-amino)-methyl]-4-isopropyl-pyridin-2-yl}-amine, compound with formic acid(1:1)], the maximal effect (Emax) is greater than 50%. The 50% effective concentration (EC50) under setting [2] lay within 300 to 1000 nM.
Consider `CC(C)c1cc(Nc2ccc(F)c(F)c2)ncc1CNCC1CC1` [Example 37, {5-[(Cyclopropylmethyl-amino)-methyl]-4-isopropyl-pyridin-2-yl}-(3,4-difluoro-phenyl)-amine,compound with formic acid (1:1.15)], for which the concentration giving a half-maximal response (EC50) lay within 300 to 1000 nM and the Emax is greater than 50%.
For `Fc1ccc(Nc2cc(C3CC3)c(CNCC3CCCC3)cn2)cc1Cl` [Example 44, (3-Chloro-4-fluoro-phenyl)-{5-[(cyclopentylmethyl-amino)-methyl]-4-cyclopropyl-pyridin-2-yl}-amine, compound with formicacid (1:1.4)], the maximal effect (Emax) under setting [1] is greater than 50%. Moreover, under setting [2], the 50% effective concentration (EC50) was less than 300 nM.
The like results for `CC(C)CNCc1cnc(Nc2cccc(C(F)(F)F)c2F)cc1C(C)C` [Example 46, (2-Fluoro-3-trifluoromethyl-phenyl)-5-[(isobutylamino-methyl)-4-isopropyl-pyridin-2-yl]-amine,compound with formic acid (1:1.13)] were, in that order, greater than 50% and less than 300 nM.
